# Laboratory results: ChEMBL document CHEMBL1153341, “Synthesis of new camptothecin analogs with improved antitumor activities” (Bioorg Med Chem Lett, 2009)
# The source made the active and inactive calls. No cut-off for these calls is given here.
# Test system: PC-6
# Test: Antiproliferative activity against human PC6 expressing BCRP cells after 6 days
# Assay type: functional, cell-based
# Conditions: PC-6, 144 h
row,SMILES,IC50
1,CCc1c2c(nc3ccc(O)cc13)-c1cc3c(c(=O)n1C2)COC(=O)[C@]3(O)CC [7-ETHYL-10-HYDROXYCAMPTOTHECIN],5.1 nM
2,CCCCCN1C=Nc2cccc3nc4c(c1c23)Cn1c-4cc2c(c1=O)COC(=O)[C@]2(O)CC,0.35 nM

# Test system: QG-56
# Test: Antiproliferative activity against human QG56 cells after 3 days
# Assay type: functional, cell-based
# Conditions: QG-56, 72 h
row,SMILES,IC50
1,CCCCN1C=Nc2cccc3nc4c(c1c23)Cn1c-4cc2c(c1=O)COC(=O)[C@]2(O)CC,2.3 nM
2,CCCCCN1C(=O)Nc2cccc3nc4c(c1c23)Cn1c-4cc2c(c1=O)COC(=O)[C@]2(O)CC,8.5 nM
3,CC[C@@]1(O)C(=O)OCc2c1cc1n(c2=O)Cc2c-1nc1cccc3c1c2N(CCC(C)C)C(=O)N3,0.58 nM
4,CCCCN1C(=O)Nc2cccc3nc4c(c1c23)Cn1c-4cc2c(c1=O)COC(=O)[C@]2(O)CC,1.2 nM
5,CC[C@@]1(O)C(=O)OCc2c1cc1n(c2=O)Cc2c-1nc1cccc3c1c2N(CCc1ccccc1)C(=O)N3,1.2 nM
6,CC[C@@]1(O)C(=O)OCc2c1cc1n(c2=O)Cc2c-1nc1cccc3c1c2N(CCN1CCOCC1)C=N3,9.4 nM
7,CC[C@@]1(O)C(=O)OCc2c1cc1n(c2=O)Cc2c-1nc1cccc3c1c2N(CCC(C)C)C(=S)N3,0.16 nM
8,CC[C@@]1(O)C(=O)OCc2c1cc1n(c2=O)Cc2c-1nc1cccc3c1c2N(CCc1ccccc1)C=N3,2.1 nM
9,CC[C@@]1(O)C(=O)OCc2c1cc1n(c2=O)Cc2c-1nc1cccc3c1c2N(CCC(C)C)C(CO)=N3,1.8 nM
10,CCCCCN1C(C)=Nc2cccc3nc4c(c1c23)Cn1c-4cc2c(c1=O)COC(=O)[C@]2(O)CC,1.8 nM
11,CCc1c2c(nc3ccc(O)cc13)-c1cc3c(c(=O)n1C2)COC(=O)[C@]3(O)CC [7-ETHYL-10-HYDROXYCAMPTOTHECIN],2.8 nM
12,CCCCCN1C=Nc2cccc3nc4c(c1c23)Cn1c-4cc2c(c1=O)COC(=O)[C@]2(O)CC,2.3 nM
13,CC[C@@]1(O)C(=O)OCc2c1cc1n(c2=O)Cc2c-1nc1cccc3c1c2N(CCC(C)C)C=N3,0.25 nM
14,CC[C@@]1(O)C(=O)OCc2c1cc1n(c2=O)Cc2c-1nc1cccc3c1c2N(CCN1CCOCC1)C(=O)N3,18 nM

# Test system: NCI-H460
# Test: Antitumor activity against BCRP-positive human NCI-H460 cells xenografted in mouse at 40 mg/kg, iv administered as single bolus dose for 3 weeks
# Assay type: functional, organism-based
# Set-up: dose 40 mg/kg
# Conditions: not given
row,SMILES,Activity
1,CCCCCN1C=Nc2cccc3nc4c(c1c23)Cn1c-4cc2c(c1=O)COC(=O)[C@]2(O)CC,Active

# Test system: HCT-116
# Test: Antitumor activity against BCRP-negative human HCT116 cells xenografted in mouse at 40 mg/kg, iv administered as single bolus dose for 3 weeks
# Assay type: functional, organism-based
# Set-up: dose 40 mg/kg
# Conditions: not given
row,SMILES,Activity
1,CCCCCN1C=Nc2cccc3nc4c(c1c23)Cn1c-4cc2c(c1=O)COC(=O)[C@]2(O)CC,Active

# Test system: HCT-116
# Test: Antiproliferative activity against human HCT116 cells after 3 days
# Assay type: functional, cell-based
# Conditions: HCT-116, 72 h
row,SMILES,IC50
1,CCCCN1C=Nc2cccc3nc4c(c1c23)Cn1c-4cc2c(c1=O)COC(=O)[C@]2(O)CC,0.52 nM
2,CCCCCN1C(=O)Nc2cccc3nc4c(c1c23)Cn1c-4cc2c(c1=O)COC(=O)[C@]2(O)CC,0.85 nM
3,CC[C@@]1(O)C(=O)OCc2c1cc1n(c2=O)Cc2c-1nc1cccc3c1c2N(CCC(C)C)C(=O)N3,0.05 nM
4,CCCCN1C(=O)Nc2cccc3nc4c(c1c23)Cn1c-4cc2c(c1=O)COC(=O)[C@]2(O)CC,0.4 nM
5,CC[C@@]1(O)C(=O)OCc2c1cc1n(c2=O)Cc2c-1nc1cccc3c1c2N(CCc1ccccc1)C(=O)N3,0.25 nM
6,CC[C@@]1(O)C(=O)OCc2c1cc1n(c2=O)Cc2c-1nc1cccc3c1c2N(CCN1CCOCC1)C=N3,2.2 nM
7,CC[C@@]1(O)C(=O)OCc2c1cc1n(c2=O)Cc2c-1nc1cccc3c1c2N(CCC(C)C)C(=S)N3,0.02 nM
8,CC[C@@]1(O)C(=O)OCc2c1cc1n(c2=O)Cc2c-1nc1cccc3c1c2N(CCc1ccccc1)C=N3,0.36 nM
9,CC[C@@]1(O)C(=O)OCc2c1cc1n(c2=O)Cc2c-1nc1cccc3c1c2N(CCC(C)C)C(CO)=N3,0.44 nM
10,CCCCCN1C(C)=Nc2cccc3nc4c(c1c23)Cn1c-4cc2c(c1=O)COC(=O)[C@]2(O)CC,0.12 nM
11,CCc1c2c(nc3ccc(O)cc13)-c1cc3c(c(=O)n1C2)COC(=O)[C@]3(O)CC [7-ETHYL-10-HYDROXYCAMPTOTHECIN],0.55 nM
12,CCCCCN1C=Nc2cccc3nc4c(c1c23)Cn1c-4cc2c(c1=O)COC(=O)[C@]2(O)CC,0.36 nM
13,CC[C@@]1(O)C(=O)OCc2c1cc1n(c2=O)Cc2c-1nc1cccc3c1c2N(CCC(C)C)C=N3,< 0.04 nM
14,CC[C@@]1(O)C(=O)OCc2c1cc1n(c2=O)Cc2c-1nc1cccc3c1c2N(CCN1CCOCC1)C(=O)N3,3.6 nM

# Test system: HCT-116
# Test: Antitumor activity against BCRP-negative human HCT116 cells xenografted in mouse at 100 mg/kg, iv administered as single bolus dose for 3 weeks
# Assay type: functional, organism-based
# Set-up: dose 100 mg/kg
# Conditions: not given
row,SMILES,Activity
1,CCCCCN1C=Nc2cccc3nc4c(c1c23)Cn1c-4cc2c(c1=O)COC(=O)[C@]2(O)CC,Active

# Test system: NCI-H460
# Test: Antiproliferative activity against human NCI-H460 cells after 3 days
# Assay type: functional, cell-based
# Conditions: NCI-H460, 72 h
row,SMILES,IC50
1,CCCCN1C=Nc2cccc3nc4c(c1c23)Cn1c-4cc2c(c1=O)COC(=O)[C@]2(O)CC,1.6 nM
2,CCCCCN1C(=O)Nc2cccc3nc4c(c1c23)Cn1c-4cc2c(c1=O)COC(=O)[C@]2(O)CC,8.2 nM
3,CC[C@@]1(O)C(=O)OCc2c1cc1n(c2=O)Cc2c-1nc1cccc3c1c2N(CCC(C)C)C(=O)N3,0.72 nM
4,CCCCN1C(=O)Nc2cccc3nc4c(c1c23)Cn1c-4cc2c(c1=O)COC(=O)[C@]2(O)CC,0.99 nM
5,CC[C@@]1(O)C(=O)OCc2c1cc1n(c2=O)Cc2c-1nc1cccc3c1c2N(CCc1ccccc1)C(=O)N3,0.38 nM
6,CC[C@@]1(O)C(=O)OCc2c1cc1n(c2=O)Cc2c-1nc1cccc3c1c2N(CCN1CCOCC1)C=N3,7.2 nM
7,CC[C@@]1(O)C(=O)OCc2c1cc1n(c2=O)Cc2c-1nc1cccc3c1c2N(CCC(C)C)C(=S)N3,0.08 nM
8,CC[C@@]1(O)C(=O)OCc2c1cc1n(c2=O)Cc2c-1nc1cccc3c1c2N(CCc1ccccc1)C=N3,0.91 nM
9,CC[C@@]1(O)C(=O)OCc2c1cc1n(c2=O)Cc2c-1nc1cccc3c1c2N(CCC(C)C)C(CO)=N3,0.52 nM
10,CCCCCN1C(C)=Nc2cccc3nc4c(c1c23)Cn1c-4cc2c(c1=O)COC(=O)[C@]2(O)CC,0.66 nM
11,CCc1c2c(nc3ccc(O)cc13)-c1cc3c(c(=O)n1C2)COC(=O)[C@]3(O)CC [7-ETHYL-10-HYDROXYCAMPTOTHECIN],3.3 nM
12,CCCCCN1C=Nc2cccc3nc4c(c1c23)Cn1c-4cc2c(c1=O)COC(=O)[C@]2(O)CC,2.3 nM
13,CC[C@@]1(O)C(=O)OCc2c1cc1n(c2=O)Cc2c-1nc1cccc3c1c2N(CCC(C)C)C=N3,0.11 nM
14,CC[C@@]1(O)C(=O)OCc2c1cc1n(c2=O)Cc2c-1nc1cccc3c1c2N(CCN1CCOCC1)C(=O)N3,26 nM

# Test system: PC-6
# Test: Ratio of IC50 for human PC6 expressing BCRP cells to IC50 for human PC6 cells carrying pRC
# Assay type: functional
# Conditions: not given
row,SMILES,Ratio IC50
1,CCc1c2c(nc3ccc(O)cc13)-c1cc3c(c(=O)n1C2)COC(=O)[C@]3(O)CC [7-ETHYL-10-HYDROXYCAMPTOTHECIN],12
2,CCCCCN1C=Nc2cccc3nc4c(c1c23)Cn1c-4cc2c(c1=O)COC(=O)[C@]2(O)CC,2

# Test system: NCI-H460
# Test: Antitumor activity against BCRP-positive human NCI-H460 cells xenografted in mouse at 100 mg/kg, iv administered as single bolus dose for 3 weeks
# Assay type: functional, organism-based
# Set-up: dose 100 mg/kg
# Conditions: not given
row,SMILES,Activity
1,CCCCCN1C=Nc2cccc3nc4c(c1c23)Cn1c-4cc2c(c1=O)COC(=O)[C@]2(O)CC,Active

# Molecular target: T1, DNA topoisomerase 1 (Homo sapiens, UniProt P11387)
# T1 sequence (P11387 whole entry): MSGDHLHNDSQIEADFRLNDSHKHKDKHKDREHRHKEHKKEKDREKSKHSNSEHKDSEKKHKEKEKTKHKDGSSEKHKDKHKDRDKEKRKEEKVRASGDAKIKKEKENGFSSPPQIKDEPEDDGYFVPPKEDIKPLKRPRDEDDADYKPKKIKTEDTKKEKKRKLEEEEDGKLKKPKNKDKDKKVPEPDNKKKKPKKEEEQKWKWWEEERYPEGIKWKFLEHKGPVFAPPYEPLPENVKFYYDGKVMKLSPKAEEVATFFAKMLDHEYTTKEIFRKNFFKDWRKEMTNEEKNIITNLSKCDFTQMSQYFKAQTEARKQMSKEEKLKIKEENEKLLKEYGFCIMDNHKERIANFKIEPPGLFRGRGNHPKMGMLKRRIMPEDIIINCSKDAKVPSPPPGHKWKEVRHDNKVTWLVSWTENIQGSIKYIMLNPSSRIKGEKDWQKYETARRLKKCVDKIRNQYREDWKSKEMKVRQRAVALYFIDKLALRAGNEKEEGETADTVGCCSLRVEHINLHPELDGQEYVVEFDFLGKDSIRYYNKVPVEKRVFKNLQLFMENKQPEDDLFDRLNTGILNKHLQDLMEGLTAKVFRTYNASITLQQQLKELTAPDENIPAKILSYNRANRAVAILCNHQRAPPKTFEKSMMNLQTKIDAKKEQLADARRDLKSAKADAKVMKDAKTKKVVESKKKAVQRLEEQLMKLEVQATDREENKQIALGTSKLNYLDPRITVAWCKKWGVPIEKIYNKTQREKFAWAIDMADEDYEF
# Test: Inhibition of human topoisomerase 1
# Conditions: not given
row,SMILES,IC50
1,CCc1c2c(nc3ccc(O)cc13)-c1cc3c(c(=O)n1C2)COC(=O)[C@]3(O)CC [7-ETHYL-10-HYDROXYCAMPTOTHECIN],5500 nM
2,CCCCCN1C=Nc2cccc3nc4c(c1c23)Cn1c-4cc2c(c1=O)COC(=O)[C@]2(O)CC,2300 nM

# Test system: not listed separately
# Test: Toxicity to iv dosed mouse administered as single bolus dose for 3 weeks
# Assay type: organism-based
# Conditions: in vivo
row,SMILES,MTD at 504 h
1,CCc1c2c(nc3ccc(OC(=O)N4CCC(N5CCCCC5)CC4)cc13)-c1cc3c(c(=O)n1C2)COC(=O)[C@]3(O)CC [IRINOTECAN],100 mg/kg
2,CCCCCN1C=Nc2cccc3nc4c(c1c23)Cn1c-4cc2c(c1=O)COC(=O)[C@]2(O)CC,40 mg/kg

# Test system: PC-6
# Test: Antiproliferative activity against human PC6 cells carrying pRC after 6 days
# Assay type: functional, cell-based
# Conditions: PC-6, 144 h
row,SMILES,IC50
1,CCc1c2c(nc3ccc(O)cc13)-c1cc3c(c(=O)n1C2)COC(=O)[C@]3(O)CC [7-ETHYL-10-HYDROXYCAMPTOTHECIN],0.43 nM
2,CCCCCN1C=Nc2cccc3nc4c(c1c23)Cn1c-4cc2c(c1=O)COC(=O)[C@]2(O)CC,0.18 nM
